Assay results published in PMC2424174, “Suppression of Tumor Growth and Angiogenesis by a Specific Antagonist of the Cell-Surface Expressed Nucleolin” (PLoS ONE, 2008).

Assays:
[1] = system: MDA-MB-435 cells; assay: Colony formation in soft agar, MDA-MB-435; format: cell-based, human; details: 5 µM HB-19, MDA-MB-435
Method: Figure 4 HB-19 inhibits colony formation in soft agar by tumor cell lines. (A) MDA-MB-231 cells in culture medium were seeded in triplicate in the absence (histogram C) or presence of 0.1, 0.5 and 1 of µM HB-19, or 0.1 µM of the anti-nucleolin mAb MS-3 or control IgG, or 10 µM bisphosphonate (BisP). (B) Various tumor cell lines (as indicated) in culture medium were seeded in triplicate in the absence (histogram Control) or presence of 5 µM HB-19. After 10–21 days, colonies with diameters greater than 50 µm were scored as positive. Statistical significance: *0.01<p<[…], **p<0.01, ***p<0.001.
Carcinoma cells (2×10^4) were mixed in 0.35% top agar, diluted in complete medium (DMEM containing 10% FBS) in the absence or presence of HB-19, and plated onto 0.8% bottom agar into 12-well plates. Cells were treated twice a week during 10 to 21 days. Colonies with diameters greater than 50 µm were scored as positive using a phase contrast microscope equipped with a measuring grid at magnification 100× [45]. The number of colonies was determined by analyzing 5 fields/well from 3 wells and the test was repeated at least twice.

[2] = system: nucleolin; assay: Nucleolin expression in HB-19 treated MDA-MB-231 cells (immunoblot / immunofluorescence); format: cell-based, human; details: for reduction of surface/cytoplasmic nucleolin: 10 µM HB-19, 37°C, vs untreated, immunoblot band intensity
Method: Figure 2 HB-19 binds nucleolin expressed on the surface of tumor cells and causes reduction of cytoplasmic/surface but not nuclear nucleolin. (A) HB-19/Btn forms a stable complex with nucleolin expressed on the surface of cells. MDA-MB-231 cells were incubated (45 min, 20°C) with 0, 1, 2, 4, 8 and 12 µM of HB-19/Btn before preparation of surface/cytoplasmic (i.e., nucleus-free) and nuclear extracts, [28]. Samples of surface nucleolin (purified using surface/cytoplasmic extracts from 2×10^7 cells) and crude surface/cytoplasmic and nuclear extracts (from 2×10^6 cells) were analyzed by immunoblotting for the detection of nucleolin using mAb D3. (B) Specific reduction of surface/cytoplasmic nucleolin in HB-19 treated cells. MDA-MB-231 cells were cultured (at 37°C) with 10 µM of HB-19 for 4, 24 and 48 hours before preparation of cytoplasmic and nuclear extracts. Material from 2×10^6 cells (Untreated or HB-19 treated cells as indicated − or + signs, respectively) was analyzed by immunoblotting for the detection of nucleolin. Sections of the gel at the position of the nucleolin bands are presented. […] The intensity of nucleolin protein bands quantified by using the NIH image software indicated 75% and 93% reduction of surface/cytoplasmic nucleolin in HB-19 treated cells at 24 and 48 hours, respectively, compared to the corresponding untreated cells. (C) HB-19 binds the cell surface and enters in the cytoplasm but not the nucleus. MDA-MB-231 cells were incubated at 20°C (for HB-19 Binding) or 37°C (for HB-19 Entry) with 5 µM of HB-19/Btn for 1 hour before fixation in PFA or PFA-Triton, respectively. Fixed cells were successively incubated with rabbit anti-biotin and goat Texas Red-conjugated anti-rabbit IgG and the nuclei were colored with DAPI. Scans corresponding to the cross-section of cells are shown, each with or without the DAPI. (D) Nucleolar nucleolin is not affected in HB-19 treated cells. MDA-MB-231 cells cultured in the absence (Control Cells) or presence of 10 µM of HB-19 for 48 hours (HB-19 Treated Cells) were fixed in PFA-Triton and processed for fluorescence microscopy.
Cells washed in phosphate-buffered saline (PBS) were lysed in buffer E (20 mM Tris–HCl, pH 7.6, 150 mM NaCl, 5 mM MgCl2, 0.2 mM phenylmethylsulfonyl fluoride (PMSF), 5 mM β-mercaptoethanol, aprotinin (1000 U/ml) and 0.5% Triton X-100) and the nuclei were pelleted by centrifugation (1000g for 5 min). […] Aliquots of crude cell extracts were diluted in 2 fold concentrated electrophoresis sample buffer containing SDS, heated and analyzed by SDS- polyacrylamide gel electrophoresis (PAGE). […]

pseudo-tripeptide Lysψ(CH2N)-Pro-Arg coupled to a template (H2NLys-Lys-Lys-Gly-Pro-Lys-Glu-Lys-AhxCONH2) [HB-19, pseudopeptide presenting pentavalently the pseudo-tripeptide Lysψ(CH2N)-Pro-Arg coupled to a template]
colony formation [1]: reduced markedly | level and nucleolar localization of nuclear nucleolin ([2]; 10 µM HB-19, 24–48 hours): without apparent modification | reduction of surface/cytoplasmic nucleolin ([2]; 24 hours): 75% | reduction of surface/cytoplasmic nucleolin ([2]; 48 hours): 93% | expression of other cytoplasmic proteins ([2]; 10 µM HB-19, stained gel): not affected
